From patent publication US9018248B2, “Fatty acid derivatives of catechins and methods of their use” (Genesis Group Inc., priority 2010, dated 2015)

How the values were obtained:
supercoiled pBR322 DNA = assay: Hydroxyl radical-induced DNA scission; conditions: 1 μM test compounds, H2O2/Fe2SO4, 37° C., 1 hour, FIG. 2
Experimental: For hydroxyl radical-induced DNA oxidation, 2 μL of test compounds dissolved in ethanol were added into an Eppendorf tube and the solvent was evaporated under a nitrogen stream. To the tube 2 μL of distilled water were added, followed by thorough vortexing for 1 min. The following reagents were then added to the tube in the order as stated: 2 μL of PBS (pH7.4), 2 μL of supercoiled pBR322 DNA, 2 μL of H2O2 and 2 μL of Fe2SO4. The mixture (10 μL) containing 1 μM test compounds, 0.1M PBS, 10 μg/ml DNA, 0.2 mM H2O2 and 0.1 mM Fe2SO4 (final concentration/assay) was incubated at 37° C. for 1 hour.
After incubation, 1 μL of loading dye (0.25% bromophenol blue/0.25% xylene cyanol/50% glycerol) was added, and the whole mixture was loaded onto an agarose gel. […] The images were analyzed using AlphaEase stand-alone software (Alpha Innotech Co., San Leandro, Calif.) and the intensity or density of the bands (obtained from densitometer) was used as the indicator of concentration of the native (supercoiled) and nicked DNA fractions. Antioxidant activity was calculated as DNA retention according to the following equation: % retention=100×(native DNAsample/native DNAblank) where, DNAsample and DNAblank are normalized concentrations of native supercoiled DNA in total DNA for sample groups and blank, respectively. […]

[1] = Reducing power (Fe3+-Fe2+ transformation); conditions: test compounds 1 mM in 95% ethanol, ascorbic acid equivalents
Experimental: An ORAC (Oxygen Radical Absorbance Capacity) assay was carried out using a Fluostar Optima plate reader (BMG Labtech, Durham, N.C.) equipped with an incubator and two injector pumps. A modified method for lipophilic antioxidants was followed, in which randomly methylated cyclodextrin (RMCD) was used as water solubility enhancer, as described by Huang et al, J. Agric. Food Chem., 2002, 50, 1815-1821. Trolox standards (6.25-50 μM) and samples (0.25 μM) were dissolved in acetone/water (1:1, v/v) containing 7% RMCD. Fluorescein and […] [2,2′-azobis(2-aminopropane)dihydrochloride] were used as the probe and radical generator, respectively. […] Fluorescence was measured at an excitation wavelength of 485 nm and emission of 520 nm. […] (3b) Reducing Power The reducing power of EGCG and its derivatives (compounds 1a-1c) was determined according to Oyaizu (1986). […] The content was mixed well and the absorbance was recorded at 700 nm. Higher absorbance of the reaction mixture indicates greater reducing power. […] (3c) Metal Chelation The metal chelation capacity was measured following a procedure by Decker E. A. et al., J. Agric. […] The absorbance was measured afterwards at 562 nm. A blank without ferrozine was run for each compound, since the antioxidant-Fe^2+ complex gives a colour that might interfere with the absorbance reading. […] The spectrum was recorded after 1 min. […]

Row | Structure (SMILES) | Antioxidant activity against hydroxyl radical-induced DNA scission (supercoiled pBR322 DNA) | Reducing power relative to ascorbic acid [1]
1 | CCC=CCC=CCC=CCC=CCC=CCCCC(=O)Oc1cc(C(=O)OC2Cc3c(O)cc(O)cc3OC2c2cc(OC(=O)CCCC=CCC=CCC=CCC=CCC=CCC)c(O)c(OC(=O)CCCC=CCC=CCC=CCC=CCC=CCC)c2)cc(OC(=O)CCCC=CCC=CCC=CCC=CCC=CCC)c1O (centres unmarked) [Compound 1b] | the most potent antioxidant among all | –
2 | O=C(O[C@@H]1Cc2c(O)cc(O)cc2O[C@@H]1c1cc(O)c(O)c(O)c1)c1cc(O)c(O)c(O)c1 [EGCG, Epigallocatechin gallate, reference compound] | – | highest reducing power
